Results taken from patent publication US9096591B2, “Tetracyclic compounds” (Medivation Technologies, Inc., priority 2007, dated 2015).

Test system: C57BL/6 mice
Experiment: Recognition of a new location of the known object (spatial memory)
Format: in vivo
Conditions: 10 mg/kg
Excerpt: The object recognition test is based on the fact that mice and rats spontaneously explore new object or location of a known object a lot longer than the know object or a known location of an object. This test was first used in rats (Ennaceur A., Delacour J., 1988). It was further shown by others that this type of memory testing is suitable for mice (Dodart J. et al. 1997, Messier C. 1997, Pittenger C. et al., 2002, Ryabinin A. et al., 2002, Sargolini F. et al., 2003). The method of recognition of an object is divided in two stages. The first one involves the recognition of a new location of a known object, which is used to assess spatial memory. The second one includes a test for recognition of a new in order to evaluate the non-spatial memory (Gaffan D., 1992, Kolb B. et al., 1994, Steckler T., 1998). Currently, both are widely used to determine the effectiveness of newly synthesized drugs on memory.
All experiments were carried out on 3-4 months old males (C57BL/6 line) 22-26 g weight with 10 animals in each group. All animals were kept in the animal facility (5 animals per cage) on the 12×12 hours light cycle (8 am-8 pm) with free access to food and water. […] Brown glass vials were used as test objects which are 2.7 cm in diameter (1.1 inch) and 5.5 cm high (2.2 inch). All vials were treated with 85% ethanol 2-3 minutes before each testing. Animals were placed in the center of the chamber.
Dimebon and compounds of the invention were dissolved in distilled water and administered orally at 0.05 mL per 10 g of animal mass 1 hour before the training exercise. All animals in the control group were treated with the equivalent dose of vehicle. The testing was performed 48 hours after the training exercise because animals forget the location of the object during the 48-hour resting time.
On the first day animals were brought in the testing room so that they could adapt to the testing environment for 20-30 min. Subsequently, each animal was placed in the empty testing chamber for 10 min, which was wiped with alcohol beforehand. After that animals were transferred back into the […] and returned to the animal facility.
The next day after habituation, the animals were brought back into the testing room where they were weighed and injected with the testing compound. An hour after injection, each animal was placed into the testing camber which had two identical objects that were positioned 14.5 cm (5.7 inches) from the corners on the diagonal. The training exercise lasted for 15 min for each animal. Subsequently, each animal was placed back into the cage and returned into the animal house.
The testing procedure was performed 48 hours after the training exercise. During the procedure two objects were used as in the training exercise. […] The amount of time that each animal spent on exploration each object was determined with 0.1 sec accuracy using two electronic stopwatches for total of 10 min. […] The survey of the object was counted as positive if the nose of an animal was pointed within 2 cm or if the animal was touching the objected directly with the nose.
Due to fair differences in the amount of time that each animal surveyed the object, the percentage of the survey time for each animal was determined using this formula: tNL/(tFL+tNL)×100 (where t is time, NL—new location(object), and FL—familiar location(object)). […] Subsequently, the statistical significance was analyzed using a Student's t-test criteria.

Structure (SMILES): Cc1ccc2c(c1)c1c(n2CCc2ccc(C)nc2)CCN(C)C1 [Dimebon, dimebon, reference compound]
- time to explore the known object in a new location, % of the total time: 61.2±5%
- time to explore the object in a known position, % of the total time: 38.8±5%
